Legend:
[1] = biological target: Serine/threonine-protein kinase 17B (Homo sapiens) (UniProt O94768); details: Compound concentration 1000.0 nM
[2] = biological target: Myosin-IIIa (Homo sapiens) (UniProt Q8NEV4); details: Compound concentration 1000.0 nM
[3] = biological target: Serine/threonine-protein kinase TNNI3K (Homo sapiens) (UniProt Q59H18); details: Compound concentration 1000.0 nM
[4] = biological target: Tyrosine-protein kinase Fyn (Homo sapiens) (UniProt P06241); details: Compound concentration 1000.0 nM
[5] = biological target: Tyrosine-protein kinase Tec (Homo sapiens) (UniProt P42680); details: Compound concentration 1000.0 nM
[6] = biological target: Phosphatidylinositol 4-kinase beta (Homo sapiens) (UniProt Q9UBF8); details: Compound concentration 1000.0 nM
[7] = biological target: Bone morphogenetic protein receptor type-1A (Homo sapiens) (UniProt P36894); details: Compound concentration 1000.0 nM
[8] = test system: Receptor-type tyrosine-protein kinase FLT3 (Homo sapiens), P36888 [N841I]; details: Compound concentration 1000.0 nM
[9] = biological target: Mitogen-activated protein kinase kinase kinase 9 (Homo sapiens) (UniProt P80192); details: Compound concentration 1000.0 nM
[10] = test system: Serine/threonine-protein kinase B-raf (Homo sapiens), P15056 [V600E]; details: Compound concentration 1000.0 nM
[11] = biological target: Tyrosine-protein kinase JAK1 (Homo sapiens) (UniProt P23458); details: Compound concentration 1000.0 nM
[12] = biological target: Dual specificity mitogen-activated protein kinase kinase 2 (Homo sapiens) (UniProt P36507); details: Compound concentration 1000.0 nM
[13] = biological target: Mitogen-activated protein kinase kinase kinase 12 (Homo sapiens) (UniProt Q12852); details: Compound concentration 1000.0 nM
[14] = biological target: Serine/threonine-protein kinase BRSK1 (Homo sapiens) (UniProt Q8TDC3); details: Compound concentration 1000.0 nM
[15] = biological target: Cyclin-dependent kinase 17 (Homo sapiens) (UniProt Q00537); details: Compound concentration 1000.0 nM
[16] = test system: Receptor-type tyrosine-protein kinase FLT3 (Homo sapiens), P36888 [UNDEFINED MUTATION]; details: Compound concentration 1000.0 nM
[17] = biological target: Dual specificity protein kinase TTK (Homo sapiens) (UniProt P33981); details: Compound concentration 1000.0 nM
[18] = biological target: SRSF protein kinase 2 (Homo sapiens) (UniProt P78362); details: Compound concentration 1000.0 nM
[19] = biological target: Ribosomal protein S6 kinase alpha-4 (Homo sapiens) (UniProt O75676); details: Compound concentration 1000.0 nM
[20] = biological target: Calcium-dependent protein kinase 1 (Plasmodium falciparum) (UniProt P62344); details: Compound concentration 1000.0 nM
[21] = biological target: Receptor tyrosine-protein kinase erbB-2 (Homo sapiens) (UniProt P04626); details: Compound concentration 1000.0 nM
[22] = biological target: Sigma intracellular receptor 2 (Homo sapiens, UniProt Q5BJF2); details: Compound concentration 10.0 uM
[23] = biological target: Proto-oncogene tyrosine-protein kinase receptor Ret (Homo sapiens) (UniProt P07949); details: Compound concentration 1000.0 nM
[24] = biological target: Atypical kinase COQ8B, mitochondrial (Homo sapiens) (UniProt Q96D53); details: Compound concentration 1000.0 nM
[25] = biological target: Myosin light chain kinase, smooth muscle (Homo sapiens) (UniProt Q15746); details: Compound concentration 1000.0 nM
[26] = biological target: Hormonally up-regulated neu tumor-associated kinase (Homo sapiens) (UniProt P57058); details: Compound concentration 1000.0 nM
[27] = biological target: Serine/threonine-protein kinase Nek2 (Homo sapiens) (UniProt P51955); details: Compound concentration 1000.0 nM
[28] = biological target: Receptor-interacting serine/threonine-protein kinase 2 (Homo sapiens) (UniProt O43353); details: Compound concentration 1000.0 nM
[29] = biological target: Ribosomal protein S6 kinase alpha-5 (Homo sapiens) (UniProt O75582); details: Compound concentration 1000.0 nM
[30] = biological target: Ribosomal protein S6 kinase alpha-2 (Homo sapiens) (UniProt Q15349); details: Compound concentration 1000.0 nM
[31] = biological target: Mitogen-activated protein kinase 9 (Homo sapiens) (UniProt P45984); details: Compound concentration 1000.0 nM
[32] = biological target: Serine/threonine-protein kinase TAO1 (Homo sapiens) (UniProt Q7L7X3); details: Compound concentration 1000.0 nM
[33] = test system: Mast/stem cell growth factor receptor Kit (Homo sapiens), P10721 [V559D]; details: Compound concentration 1000.0 nM
[34] = biological target: Serine/threonine-protein kinase WNK2 (Homo sapiens) (UniProt Q9Y3S1); details: Compound concentration 1000.0 nM
[35] = biological target: MAP kinase-activated protein kinase 2 (Homo sapiens) (UniProt P49137); details: Compound concentration 1000.0 nM
[36] = biological target: Dual specificity protein kinase CLK4 (Homo sapiens) (UniProt Q9HAZ1); details: Compound concentration 1000.0 nM
[37] = biological target: Mitogen-activated protein kinase 11 (Homo sapiens) (UniProt Q15759); details: Compound concentration 1000.0 nM
[38] = biological target: Receptor-interacting serine/threonine-protein kinase 1 (Homo sapiens) (UniProt Q13546); details: Compound concentration 1000.0 nM
[39] = biological target: cGMP-dependent protein kinase 2 (Homo sapiens) (UniProt Q13237); details: Compound concentration 1000.0 nM
[40] = biological target: Mitogen-activated protein kinase 8 (Homo sapiens) (UniProt P45983); details: Compound concentration 1000.0 nM
[41] = biological target: RAF proto-oncogene serine/threonine-protein kinase (Homo sapiens) (UniProt P04049); details: Compound concentration 1000.0 nM
[42] = biological target: Tyrosine-protein kinase Lyn (Homo sapiens) (UniProt P07948); details: Compound concentration 1000.0 nM
[43] = biological target: Insulin receptor-related protein (Homo sapiens) (UniProt P14616); details: Compound concentration 1000.0 nM
[44] = biological target: Cyclin-dependent kinase 11A (Homo sapiens) (UniProt Q9UQ88); details: Compound concentration 1000.0 nM
[45] = biological target: Focal adhesion kinase 1 (Homo sapiens) (UniProt Q05397); details: Compound concentration 1000.0 nM

Chain of Receptor tyrosine-protein kinase erbB-2 (Homo sapiens) (P04626 whole entry): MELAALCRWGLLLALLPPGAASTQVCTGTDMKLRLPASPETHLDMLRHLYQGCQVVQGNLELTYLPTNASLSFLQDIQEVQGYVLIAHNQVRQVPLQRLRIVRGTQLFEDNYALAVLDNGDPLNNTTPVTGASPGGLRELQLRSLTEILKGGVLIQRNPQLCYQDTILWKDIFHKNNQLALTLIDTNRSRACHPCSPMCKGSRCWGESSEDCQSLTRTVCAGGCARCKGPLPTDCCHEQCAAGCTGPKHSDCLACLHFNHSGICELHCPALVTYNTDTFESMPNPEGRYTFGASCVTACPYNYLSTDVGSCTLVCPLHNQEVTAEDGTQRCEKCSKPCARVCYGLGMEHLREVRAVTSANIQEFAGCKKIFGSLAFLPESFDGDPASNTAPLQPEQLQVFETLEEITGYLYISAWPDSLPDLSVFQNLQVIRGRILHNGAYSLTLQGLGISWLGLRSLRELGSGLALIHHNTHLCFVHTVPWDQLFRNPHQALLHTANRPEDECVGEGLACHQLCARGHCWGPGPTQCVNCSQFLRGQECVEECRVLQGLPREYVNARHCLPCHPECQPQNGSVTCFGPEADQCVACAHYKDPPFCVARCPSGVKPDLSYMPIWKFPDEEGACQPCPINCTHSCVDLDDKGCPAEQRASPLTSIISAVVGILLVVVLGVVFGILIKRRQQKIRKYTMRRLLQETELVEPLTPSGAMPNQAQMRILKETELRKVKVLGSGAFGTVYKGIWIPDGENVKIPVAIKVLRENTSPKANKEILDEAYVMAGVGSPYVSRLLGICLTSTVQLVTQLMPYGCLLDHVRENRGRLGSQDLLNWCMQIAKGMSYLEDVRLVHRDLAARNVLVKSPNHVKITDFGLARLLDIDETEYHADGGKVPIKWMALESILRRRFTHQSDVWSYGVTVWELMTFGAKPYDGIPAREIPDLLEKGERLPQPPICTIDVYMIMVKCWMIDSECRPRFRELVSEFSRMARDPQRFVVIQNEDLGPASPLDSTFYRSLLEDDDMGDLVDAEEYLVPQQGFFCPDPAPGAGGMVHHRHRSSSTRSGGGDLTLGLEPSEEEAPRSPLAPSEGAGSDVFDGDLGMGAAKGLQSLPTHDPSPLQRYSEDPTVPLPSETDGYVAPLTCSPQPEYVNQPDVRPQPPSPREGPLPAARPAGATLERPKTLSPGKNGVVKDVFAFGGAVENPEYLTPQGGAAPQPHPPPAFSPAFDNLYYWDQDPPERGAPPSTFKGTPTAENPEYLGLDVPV
Chain of Mast/stem cell growth factor receptor Kit (Homo sapiens), P10721 [V559D] (P10721 whole entry V559D): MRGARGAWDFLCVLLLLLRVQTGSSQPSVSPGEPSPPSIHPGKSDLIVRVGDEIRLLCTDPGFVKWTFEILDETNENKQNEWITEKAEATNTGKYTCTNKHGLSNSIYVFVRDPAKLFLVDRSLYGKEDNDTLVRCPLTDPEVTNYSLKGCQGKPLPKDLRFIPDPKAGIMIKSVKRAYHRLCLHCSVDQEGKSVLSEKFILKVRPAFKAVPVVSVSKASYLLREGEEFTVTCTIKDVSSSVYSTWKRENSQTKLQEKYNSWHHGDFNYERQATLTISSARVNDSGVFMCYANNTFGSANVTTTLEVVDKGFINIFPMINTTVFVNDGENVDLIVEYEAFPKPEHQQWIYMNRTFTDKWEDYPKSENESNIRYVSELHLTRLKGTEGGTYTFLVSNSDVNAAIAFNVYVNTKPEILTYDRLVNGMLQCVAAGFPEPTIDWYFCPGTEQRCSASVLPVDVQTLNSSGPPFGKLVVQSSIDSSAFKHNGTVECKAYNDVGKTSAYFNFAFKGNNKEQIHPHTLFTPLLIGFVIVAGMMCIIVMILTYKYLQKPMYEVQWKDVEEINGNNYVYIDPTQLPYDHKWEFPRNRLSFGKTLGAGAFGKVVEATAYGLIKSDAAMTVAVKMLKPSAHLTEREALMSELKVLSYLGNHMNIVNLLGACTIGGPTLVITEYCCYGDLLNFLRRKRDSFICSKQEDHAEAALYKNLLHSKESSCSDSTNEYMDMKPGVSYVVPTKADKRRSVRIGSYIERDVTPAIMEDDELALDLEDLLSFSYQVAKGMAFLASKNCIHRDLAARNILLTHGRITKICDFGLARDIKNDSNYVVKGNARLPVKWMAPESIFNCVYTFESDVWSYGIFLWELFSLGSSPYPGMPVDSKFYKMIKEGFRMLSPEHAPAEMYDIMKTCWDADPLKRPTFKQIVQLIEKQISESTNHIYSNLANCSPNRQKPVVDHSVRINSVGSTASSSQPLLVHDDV
Chain of Tyrosine-protein kinase Fyn (Homo sapiens) (P06241 2-537 limits assumed): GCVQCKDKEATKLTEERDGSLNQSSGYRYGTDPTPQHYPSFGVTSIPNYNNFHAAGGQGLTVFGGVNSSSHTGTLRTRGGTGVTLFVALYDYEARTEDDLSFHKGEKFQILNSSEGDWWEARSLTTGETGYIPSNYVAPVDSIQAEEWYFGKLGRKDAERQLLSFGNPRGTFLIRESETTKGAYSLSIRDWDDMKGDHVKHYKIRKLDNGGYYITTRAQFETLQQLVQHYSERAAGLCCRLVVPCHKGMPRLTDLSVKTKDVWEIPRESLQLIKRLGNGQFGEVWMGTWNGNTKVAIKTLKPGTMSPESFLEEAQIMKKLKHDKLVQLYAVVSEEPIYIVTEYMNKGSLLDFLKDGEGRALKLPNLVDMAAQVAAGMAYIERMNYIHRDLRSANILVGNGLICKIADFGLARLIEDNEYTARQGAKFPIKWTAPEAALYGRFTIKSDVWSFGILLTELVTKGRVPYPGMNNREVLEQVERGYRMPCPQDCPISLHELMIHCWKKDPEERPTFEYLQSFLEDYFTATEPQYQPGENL
Chain of Atypical kinase COQ8B, mitochondrial (Homo sapiens) (Q96D53 whole entry): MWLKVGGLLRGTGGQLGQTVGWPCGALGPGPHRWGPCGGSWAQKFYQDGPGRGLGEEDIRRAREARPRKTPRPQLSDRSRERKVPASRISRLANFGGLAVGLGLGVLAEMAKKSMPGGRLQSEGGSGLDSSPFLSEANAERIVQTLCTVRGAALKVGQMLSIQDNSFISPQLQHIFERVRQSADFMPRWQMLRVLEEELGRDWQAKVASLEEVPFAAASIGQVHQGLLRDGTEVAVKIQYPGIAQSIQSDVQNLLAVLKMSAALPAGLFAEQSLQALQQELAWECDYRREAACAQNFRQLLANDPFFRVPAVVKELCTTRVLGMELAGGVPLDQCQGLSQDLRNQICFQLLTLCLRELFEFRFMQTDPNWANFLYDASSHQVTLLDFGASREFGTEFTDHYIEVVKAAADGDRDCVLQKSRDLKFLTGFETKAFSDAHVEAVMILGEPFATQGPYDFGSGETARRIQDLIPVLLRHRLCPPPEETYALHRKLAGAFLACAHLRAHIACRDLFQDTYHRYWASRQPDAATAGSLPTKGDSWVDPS
Chain of Ribosomal protein S6 kinase alpha-4 (Homo sapiens) (O75676 whole entry, looked up): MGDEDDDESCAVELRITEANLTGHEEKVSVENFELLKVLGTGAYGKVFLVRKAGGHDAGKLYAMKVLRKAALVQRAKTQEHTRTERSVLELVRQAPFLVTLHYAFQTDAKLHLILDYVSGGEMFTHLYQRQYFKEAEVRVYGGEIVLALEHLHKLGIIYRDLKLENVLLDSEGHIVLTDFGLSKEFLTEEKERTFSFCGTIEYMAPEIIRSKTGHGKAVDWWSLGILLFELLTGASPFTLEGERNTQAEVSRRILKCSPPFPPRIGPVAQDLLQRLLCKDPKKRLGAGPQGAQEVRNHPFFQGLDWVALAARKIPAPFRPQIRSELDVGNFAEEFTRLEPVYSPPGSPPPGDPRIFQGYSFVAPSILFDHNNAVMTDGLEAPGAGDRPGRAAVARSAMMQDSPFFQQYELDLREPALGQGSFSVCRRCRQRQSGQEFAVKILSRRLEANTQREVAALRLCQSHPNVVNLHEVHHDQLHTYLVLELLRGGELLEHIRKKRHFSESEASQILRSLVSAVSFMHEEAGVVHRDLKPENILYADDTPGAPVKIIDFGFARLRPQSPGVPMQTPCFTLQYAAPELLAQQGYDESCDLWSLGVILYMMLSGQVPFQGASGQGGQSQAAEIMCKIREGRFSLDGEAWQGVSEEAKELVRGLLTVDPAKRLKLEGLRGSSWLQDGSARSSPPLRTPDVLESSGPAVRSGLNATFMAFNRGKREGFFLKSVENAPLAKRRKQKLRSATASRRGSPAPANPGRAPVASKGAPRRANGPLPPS
Chain of Serine/threonine-protein kinase Nek2 (Homo sapiens) (P51955 whole entry): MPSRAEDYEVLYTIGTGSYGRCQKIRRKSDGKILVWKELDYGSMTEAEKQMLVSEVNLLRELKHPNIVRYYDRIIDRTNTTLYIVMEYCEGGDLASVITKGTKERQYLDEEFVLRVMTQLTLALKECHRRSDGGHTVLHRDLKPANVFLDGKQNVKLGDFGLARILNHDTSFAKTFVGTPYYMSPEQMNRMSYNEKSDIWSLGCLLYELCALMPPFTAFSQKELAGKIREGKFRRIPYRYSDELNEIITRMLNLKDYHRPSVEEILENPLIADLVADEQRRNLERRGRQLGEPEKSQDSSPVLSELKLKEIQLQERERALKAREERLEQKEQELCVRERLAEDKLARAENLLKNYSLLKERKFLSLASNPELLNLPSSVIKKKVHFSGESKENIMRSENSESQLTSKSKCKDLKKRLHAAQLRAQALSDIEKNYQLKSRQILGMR
Chain of Mitogen-activated protein kinase 8 (Homo sapiens) (P45983 whole entry): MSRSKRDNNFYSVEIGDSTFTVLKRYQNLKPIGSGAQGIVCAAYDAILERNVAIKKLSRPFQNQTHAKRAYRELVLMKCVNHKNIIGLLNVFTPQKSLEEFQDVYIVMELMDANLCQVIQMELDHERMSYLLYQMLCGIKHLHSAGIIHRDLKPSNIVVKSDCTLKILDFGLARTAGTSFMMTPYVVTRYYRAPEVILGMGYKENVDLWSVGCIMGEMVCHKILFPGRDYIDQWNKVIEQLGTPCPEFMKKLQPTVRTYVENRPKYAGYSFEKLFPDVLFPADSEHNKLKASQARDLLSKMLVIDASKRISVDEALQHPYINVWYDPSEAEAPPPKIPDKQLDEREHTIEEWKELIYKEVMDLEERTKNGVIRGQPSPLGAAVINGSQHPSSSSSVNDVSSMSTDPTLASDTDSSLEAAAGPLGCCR

## CC(=O)c1c(NS(C)(=O)=O)c2cc(-c3ccc(Cl)cc3)c(-c3ccc(Cl)cc3Cl)nc2n(C)c1=O [MRL-CB1-NC]
[1]
  residual activity: 100%
[2]
  residual activity: 88%
[3]
  residual activity: 100%
[4]
  residual activity: 92%
[5]
  residual activity: 100%
[6]
  residual activity: 74%
[7]
  residual activity: 95%
[8]
  residual activity: 100%
[9]
  residual activity: 100%
[10]
  residual activity: 88%
[11]
  residual activity: 76%
[12]
  residual activity: 100%
[13]
  residual activity: 100%
[14]
  residual activity: 99%
[15]
  residual activity: 100%
[16]
  residual activity: 98%
[17]
  residual activity: 100%
[18]
  residual activity: 100%
[19]
  residual activity: 93%
[20]
  residual activity: 99%
[21]
  residual activity: 100%
[22]
  inhibition: 17.6%
[23]
  residual activity: 93%
[24]
  residual activity: 97%
[25]
  residual activity: 93%
[26]
  residual activity: 100%
[27]
  residual activity: 100%
[28]
  residual activity: 96%
[29]
  residual activity: 100%
[30]
  residual activity: 80%
[31]
  residual activity: 67%
[32]
  residual activity: 92%
[33]
  residual activity: 100%
[34]
  residual activity: 62%
[35]
  residual activity: 80%
[36]
  residual activity: 100%
[37]
  residual activity: 100%
[38]
  residual activity: 97%
[39]
  residual activity: 100%
[40]
  residual activity: 63%
[41]
  residual activity: 100%
[42]
  residual activity: 100%
[43]
  residual activity: 93%
[44]
  residual activity: 98%
[45]
  residual activity: 100%

## CC(=O)Nc1c(C(C)=O)c(=O)n(C)c2nc(-c3ccc(Cl)cc3Cl)c(-c3ccc(Cl)cc3)cc12 [NAPHTHYRIDINONE]
[1]
  residual activity: 100%
[2]
  residual activity: 100%
[3]
  residual activity: 100%
[4]
  residual activity: 100%
[5]
  residual activity: 100%
[6]
  residual activity: 100%
[7]
  residual activity: 85%
[8]
  residual activity: 100%
[9]
  residual activity: 100%
[10]
  residual activity: 100%
[11]
  residual activity: 100%
[12]
  residual activity: 100%
[13]
  residual activity: 100%
[14]
  residual activity: 85%
[15]
  residual activity: 100%
[16]
  residual activity: 100%
[17]
  residual activity: 100%
[18]
  residual activity: 100%
[19]
  residual activity: 100%
[20]
  residual activity: 95%
[21]
  residual activity: 100%
[22]
  inhibition: 54.6%
[23]
  residual activity: 100%
[24]
  residual activity: 100%
[25]
  residual activity: 100%
[26]
  residual activity: 100%
[27]
  residual activity: 100%
[28]
  residual activity: 100%
[29]
  residual activity: 100%
[30]
  residual activity: 100%
[31]
  residual activity: 100%
[32]
  residual activity: 89%
[33]
  residual activity: 100%
[34]
  residual activity: 95%
[35]
  residual activity: 100%
[36]
  residual activity: 100%
[37]
  residual activity: 93%
[38]
  residual activity: 100%
[39]
  residual activity: 100%
[40]
  residual activity: 71%
[41]
  residual activity: 100%
[42]
  residual activity: 100%
[43]
  residual activity: 100%
[44]
  residual activity: 100%
[45]
  residual activity: 100%
